In publication PMC7594721, “Synthesis and biological activity of 2-cyanoacrylamide derivatives tethered to imidazopyridine as TAK1 inhibitors” (Journal of Enzyme Inhibition and Medicinal Chemistry, 2020):

Legend:
Assay in all cases: Kinase HotSpot profiling (Reaction Biology Corp.)
Type in all cases: biochemical
Conditions in all cases: ATP at Km
MLK2/MAP3K10 = target: T1, MLK2/MAP3K10 (Homo sapiens, UniProt Q02779)
T1 construct: purchased Reaction Biology Corp
Method: (§1) Kinase assays were performed by Invitrogen (now Thermo Fisher Scientific, Waltham, MA) or Reaction Biology Corp. (Malvern, PA). Inhibitory activity of compounds for TAK1 was evaluated using LanthaScreen® Eu Kinase Binding Assay (Invitrogen, Waltham, MA). The kinase profile of compound 13h was determined by the kinase HotSpot Profiling service of Reaction Biology Corporation. All assays were performed at Km for ATP.

ZAK/MLTK = target: T2, ZAK/MLTK (Homo sapiens, UniProt Q9NYL2)
T2 construct: purchased Reaction Biology Corp
T2 sequence (Q9NYL2 whole entry): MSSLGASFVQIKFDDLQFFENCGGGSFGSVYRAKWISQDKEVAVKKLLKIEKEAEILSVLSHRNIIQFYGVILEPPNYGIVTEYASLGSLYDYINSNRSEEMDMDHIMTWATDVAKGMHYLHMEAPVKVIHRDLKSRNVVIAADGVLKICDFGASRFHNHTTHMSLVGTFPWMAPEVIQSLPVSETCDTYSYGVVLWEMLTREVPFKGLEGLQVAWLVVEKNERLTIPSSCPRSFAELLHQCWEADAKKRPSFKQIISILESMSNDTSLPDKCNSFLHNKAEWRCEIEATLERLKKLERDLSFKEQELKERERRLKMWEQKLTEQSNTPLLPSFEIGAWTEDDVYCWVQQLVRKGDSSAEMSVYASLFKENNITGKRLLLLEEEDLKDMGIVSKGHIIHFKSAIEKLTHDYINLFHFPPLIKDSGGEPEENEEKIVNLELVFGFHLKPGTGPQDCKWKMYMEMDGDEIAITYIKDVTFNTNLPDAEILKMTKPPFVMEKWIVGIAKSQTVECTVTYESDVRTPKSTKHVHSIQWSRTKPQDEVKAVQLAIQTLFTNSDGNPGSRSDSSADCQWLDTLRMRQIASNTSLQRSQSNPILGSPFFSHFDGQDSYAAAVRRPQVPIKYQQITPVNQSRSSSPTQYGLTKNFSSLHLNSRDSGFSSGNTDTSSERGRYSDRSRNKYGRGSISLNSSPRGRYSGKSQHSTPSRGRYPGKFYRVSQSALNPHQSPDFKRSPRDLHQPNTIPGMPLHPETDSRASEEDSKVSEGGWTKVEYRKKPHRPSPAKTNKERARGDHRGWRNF
Method: as §1

BRAF = target: T3, BRAF (Homo sapiens, UniProt P15056)
T3 construct: purchased Reaction Biology Corp
T3 sequence (P15056 whole entry): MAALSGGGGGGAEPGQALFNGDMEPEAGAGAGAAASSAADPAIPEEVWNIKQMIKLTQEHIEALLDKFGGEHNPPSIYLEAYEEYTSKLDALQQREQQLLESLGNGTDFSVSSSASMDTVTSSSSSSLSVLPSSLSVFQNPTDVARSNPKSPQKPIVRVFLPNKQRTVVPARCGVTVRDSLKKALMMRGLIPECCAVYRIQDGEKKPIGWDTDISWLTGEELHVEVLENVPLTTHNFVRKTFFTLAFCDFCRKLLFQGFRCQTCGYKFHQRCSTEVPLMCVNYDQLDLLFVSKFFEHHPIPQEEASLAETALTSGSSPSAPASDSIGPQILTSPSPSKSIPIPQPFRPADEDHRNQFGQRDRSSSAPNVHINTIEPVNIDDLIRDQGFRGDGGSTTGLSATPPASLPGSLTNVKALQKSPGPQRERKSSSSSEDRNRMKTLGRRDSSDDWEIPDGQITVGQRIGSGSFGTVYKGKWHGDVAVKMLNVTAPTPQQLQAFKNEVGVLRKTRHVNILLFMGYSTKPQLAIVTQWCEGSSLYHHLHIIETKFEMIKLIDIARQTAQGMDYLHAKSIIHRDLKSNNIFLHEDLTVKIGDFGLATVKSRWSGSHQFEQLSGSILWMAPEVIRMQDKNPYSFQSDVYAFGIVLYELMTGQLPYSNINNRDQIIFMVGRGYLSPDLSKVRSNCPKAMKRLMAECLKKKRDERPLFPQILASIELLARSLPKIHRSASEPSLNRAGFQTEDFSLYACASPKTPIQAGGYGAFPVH
Method: as §1

MEKK1 = target: T4, MEKK1 (Homo sapiens, UniProt Q13233)
T4 construct: purchased Reaction Biology Corp
T4 sequence (Q13233 whole entry): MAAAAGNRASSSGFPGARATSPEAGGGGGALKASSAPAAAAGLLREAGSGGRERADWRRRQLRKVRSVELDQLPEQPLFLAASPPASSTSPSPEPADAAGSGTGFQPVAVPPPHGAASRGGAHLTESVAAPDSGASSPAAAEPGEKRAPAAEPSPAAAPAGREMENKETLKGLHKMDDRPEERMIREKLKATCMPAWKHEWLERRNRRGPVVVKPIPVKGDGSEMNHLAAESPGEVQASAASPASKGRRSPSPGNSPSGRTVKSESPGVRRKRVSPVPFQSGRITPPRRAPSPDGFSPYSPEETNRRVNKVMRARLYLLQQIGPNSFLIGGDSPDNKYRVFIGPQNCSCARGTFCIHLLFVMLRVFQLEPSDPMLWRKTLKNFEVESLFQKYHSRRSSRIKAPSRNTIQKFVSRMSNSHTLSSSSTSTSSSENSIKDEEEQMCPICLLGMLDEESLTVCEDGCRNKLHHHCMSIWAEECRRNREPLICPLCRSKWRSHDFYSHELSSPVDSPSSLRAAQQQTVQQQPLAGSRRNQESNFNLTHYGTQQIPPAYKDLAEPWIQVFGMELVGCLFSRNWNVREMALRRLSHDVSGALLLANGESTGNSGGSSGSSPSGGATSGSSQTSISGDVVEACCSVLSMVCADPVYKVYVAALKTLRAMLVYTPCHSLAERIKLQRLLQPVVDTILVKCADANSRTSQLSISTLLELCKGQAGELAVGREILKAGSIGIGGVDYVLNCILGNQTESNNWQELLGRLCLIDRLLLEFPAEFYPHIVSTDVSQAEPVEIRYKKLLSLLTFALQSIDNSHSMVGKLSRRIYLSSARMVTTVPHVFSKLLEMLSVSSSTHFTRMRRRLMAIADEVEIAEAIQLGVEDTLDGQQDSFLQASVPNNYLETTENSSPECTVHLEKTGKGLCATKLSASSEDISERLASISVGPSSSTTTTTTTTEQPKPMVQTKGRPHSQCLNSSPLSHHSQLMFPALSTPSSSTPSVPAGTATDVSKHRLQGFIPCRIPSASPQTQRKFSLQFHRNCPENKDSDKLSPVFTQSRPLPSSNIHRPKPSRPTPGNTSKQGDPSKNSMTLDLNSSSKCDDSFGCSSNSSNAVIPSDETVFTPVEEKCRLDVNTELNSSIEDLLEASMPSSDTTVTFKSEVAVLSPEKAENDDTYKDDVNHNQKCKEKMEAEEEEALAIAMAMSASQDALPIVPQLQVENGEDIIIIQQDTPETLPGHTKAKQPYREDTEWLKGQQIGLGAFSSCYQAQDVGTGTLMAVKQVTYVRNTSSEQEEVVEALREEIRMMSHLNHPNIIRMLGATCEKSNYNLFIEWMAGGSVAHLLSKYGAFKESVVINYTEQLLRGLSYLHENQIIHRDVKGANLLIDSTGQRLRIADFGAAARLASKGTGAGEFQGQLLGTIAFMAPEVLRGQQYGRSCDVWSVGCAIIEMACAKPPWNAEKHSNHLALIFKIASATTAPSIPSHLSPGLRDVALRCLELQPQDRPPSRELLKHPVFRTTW
Method: as §1

MEK2/MAP2K2 = target: T5, MEK2/MAP2K2 (Homo sapiens, UniProt P36507)
T5 construct: purchased Reaction Biology Corp
T5 sequence (P36507 whole entry): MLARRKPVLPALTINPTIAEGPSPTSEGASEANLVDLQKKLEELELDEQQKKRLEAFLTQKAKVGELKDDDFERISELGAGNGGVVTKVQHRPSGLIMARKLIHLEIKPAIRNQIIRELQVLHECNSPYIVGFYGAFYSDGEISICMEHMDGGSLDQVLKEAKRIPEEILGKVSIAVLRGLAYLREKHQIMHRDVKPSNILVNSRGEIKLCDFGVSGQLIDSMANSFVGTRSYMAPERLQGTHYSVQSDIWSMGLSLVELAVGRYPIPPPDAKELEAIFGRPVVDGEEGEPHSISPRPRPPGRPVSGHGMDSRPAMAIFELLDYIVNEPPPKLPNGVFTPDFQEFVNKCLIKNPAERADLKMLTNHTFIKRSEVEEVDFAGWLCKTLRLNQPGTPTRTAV
Method: as §1

MLK1/MAP3K9 = target: T6, MLK1/MAP3K9 (Homo sapiens, UniProt P80192)
T6 construct: purchased Reaction Biology Corp
T6 sequence (P80192 whole entry): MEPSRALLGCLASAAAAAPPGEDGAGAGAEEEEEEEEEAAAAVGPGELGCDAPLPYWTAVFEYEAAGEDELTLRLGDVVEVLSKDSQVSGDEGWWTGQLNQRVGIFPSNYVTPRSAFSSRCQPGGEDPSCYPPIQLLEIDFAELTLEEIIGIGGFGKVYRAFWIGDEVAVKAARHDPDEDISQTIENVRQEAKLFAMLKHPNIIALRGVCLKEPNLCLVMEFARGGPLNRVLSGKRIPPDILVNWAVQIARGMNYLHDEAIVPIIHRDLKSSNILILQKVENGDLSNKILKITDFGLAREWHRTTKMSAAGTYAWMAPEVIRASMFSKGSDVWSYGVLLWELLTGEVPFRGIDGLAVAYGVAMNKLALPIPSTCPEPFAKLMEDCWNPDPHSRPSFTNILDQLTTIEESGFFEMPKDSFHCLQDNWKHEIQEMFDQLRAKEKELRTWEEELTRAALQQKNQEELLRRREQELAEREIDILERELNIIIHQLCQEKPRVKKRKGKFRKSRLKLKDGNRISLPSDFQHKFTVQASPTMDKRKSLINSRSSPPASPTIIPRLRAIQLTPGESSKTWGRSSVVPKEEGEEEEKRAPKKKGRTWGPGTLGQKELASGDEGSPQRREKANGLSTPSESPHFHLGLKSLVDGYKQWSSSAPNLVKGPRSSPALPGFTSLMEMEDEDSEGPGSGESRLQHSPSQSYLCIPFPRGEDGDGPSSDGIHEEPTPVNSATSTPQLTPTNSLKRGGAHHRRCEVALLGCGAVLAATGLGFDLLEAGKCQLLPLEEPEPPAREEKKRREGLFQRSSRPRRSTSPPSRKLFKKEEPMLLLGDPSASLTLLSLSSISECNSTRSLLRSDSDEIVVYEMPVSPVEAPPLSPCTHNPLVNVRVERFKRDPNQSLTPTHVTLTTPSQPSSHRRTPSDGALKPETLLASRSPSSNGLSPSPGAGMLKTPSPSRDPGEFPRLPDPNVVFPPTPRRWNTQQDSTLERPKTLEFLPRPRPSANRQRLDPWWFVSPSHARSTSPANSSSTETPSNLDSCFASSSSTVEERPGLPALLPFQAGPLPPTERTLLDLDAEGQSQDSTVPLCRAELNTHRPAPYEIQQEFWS
Method: as §1

MEKK6 = target: T7, MEKK6 (Homo sapiens, UniProt O95382)
T7 construct: purchased Reaction Biology Corp
T7 sequence (O95382 1-1288): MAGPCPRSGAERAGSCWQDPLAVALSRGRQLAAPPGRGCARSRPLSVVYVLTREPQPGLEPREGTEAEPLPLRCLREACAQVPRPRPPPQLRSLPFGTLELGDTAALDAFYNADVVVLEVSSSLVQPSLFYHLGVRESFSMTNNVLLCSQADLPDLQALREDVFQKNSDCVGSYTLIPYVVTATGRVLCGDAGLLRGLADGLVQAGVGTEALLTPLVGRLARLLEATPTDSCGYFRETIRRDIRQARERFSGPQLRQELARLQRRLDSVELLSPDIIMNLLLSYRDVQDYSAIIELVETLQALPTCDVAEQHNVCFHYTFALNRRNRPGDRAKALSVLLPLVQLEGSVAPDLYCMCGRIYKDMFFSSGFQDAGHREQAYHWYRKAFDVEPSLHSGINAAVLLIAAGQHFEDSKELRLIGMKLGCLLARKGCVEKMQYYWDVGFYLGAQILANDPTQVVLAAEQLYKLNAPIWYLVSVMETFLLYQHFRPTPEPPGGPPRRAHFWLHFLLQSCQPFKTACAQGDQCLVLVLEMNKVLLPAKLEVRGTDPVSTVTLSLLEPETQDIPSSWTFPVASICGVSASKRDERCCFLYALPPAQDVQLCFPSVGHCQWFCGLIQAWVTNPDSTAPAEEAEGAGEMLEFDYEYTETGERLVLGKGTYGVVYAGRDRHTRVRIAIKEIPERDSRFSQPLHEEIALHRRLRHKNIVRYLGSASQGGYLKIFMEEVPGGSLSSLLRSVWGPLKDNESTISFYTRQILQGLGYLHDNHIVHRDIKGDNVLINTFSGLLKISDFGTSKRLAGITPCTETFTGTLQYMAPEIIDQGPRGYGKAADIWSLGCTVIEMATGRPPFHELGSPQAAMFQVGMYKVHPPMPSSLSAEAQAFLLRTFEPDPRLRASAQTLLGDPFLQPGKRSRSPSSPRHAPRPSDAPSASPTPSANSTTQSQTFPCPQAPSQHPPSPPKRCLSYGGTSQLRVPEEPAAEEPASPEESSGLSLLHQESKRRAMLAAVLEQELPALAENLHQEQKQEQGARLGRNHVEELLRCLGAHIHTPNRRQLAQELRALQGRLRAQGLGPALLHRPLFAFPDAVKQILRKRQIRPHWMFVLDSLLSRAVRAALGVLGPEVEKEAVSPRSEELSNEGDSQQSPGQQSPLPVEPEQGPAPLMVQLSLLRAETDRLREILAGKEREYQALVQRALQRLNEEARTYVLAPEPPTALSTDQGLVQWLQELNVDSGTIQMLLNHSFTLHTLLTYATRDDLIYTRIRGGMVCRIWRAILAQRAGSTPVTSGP
Method: as §1

MEKK2 = target: T8, MEKK2 (Homo sapiens, UniProt Q9Y2U5)
T8 construct: purchased Reaction Biology Corp
T8 sequence (Q9Y2U5 1-619): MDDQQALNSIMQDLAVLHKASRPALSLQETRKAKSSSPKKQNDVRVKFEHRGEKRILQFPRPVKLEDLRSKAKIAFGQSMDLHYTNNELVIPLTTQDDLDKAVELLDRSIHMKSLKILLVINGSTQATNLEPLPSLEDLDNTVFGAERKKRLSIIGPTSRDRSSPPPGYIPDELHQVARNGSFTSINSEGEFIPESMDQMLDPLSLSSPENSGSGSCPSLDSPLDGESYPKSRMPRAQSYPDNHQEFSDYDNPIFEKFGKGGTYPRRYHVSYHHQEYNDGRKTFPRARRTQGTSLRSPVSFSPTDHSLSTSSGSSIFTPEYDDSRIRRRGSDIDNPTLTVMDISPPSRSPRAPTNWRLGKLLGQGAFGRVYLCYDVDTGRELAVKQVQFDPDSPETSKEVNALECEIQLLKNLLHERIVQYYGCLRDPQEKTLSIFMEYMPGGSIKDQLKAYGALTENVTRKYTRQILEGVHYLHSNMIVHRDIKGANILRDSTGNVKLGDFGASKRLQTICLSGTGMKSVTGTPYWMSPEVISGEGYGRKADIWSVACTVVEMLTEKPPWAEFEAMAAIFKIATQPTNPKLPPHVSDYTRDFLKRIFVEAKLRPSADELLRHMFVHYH
Method: as §1

inhibition at 1 µM (MLK2/MAP3K10): 30 ± 2% | inhibition at 1 µM (ZAK/MLTK): 29 ± 1.4% | inhibition at 1 µM (BRAF): 0% | inhibition at 1 µM (MEKK1): 12 ± 0.7% | inhibition at 1 µM (MEK2/MAP2K2): 23 ± 1.9% | inhibition at 1 µM (MLK1/MAP3K9): 35 ± 1.2% | inhibition at 1 µM (MEKK6): 0% | inhibition at 1 µM (MEKK2): 0%
Compound: Cc1cccc(/C=C(\C#N)C(=O)N[C@@H]2CCN(c3c(Cl)cnc4[nH]c(-c5ccc(N6CCN(C)CC6)cc5)nc34)C2)n1 [Compound 13h, (R,E)-N-(1–(6-chloro-2–(4-(4-methylpiperazin-1-yl)phenyl)-3H-imidazo[4,5-b]pyridin-7-yl)pyrrolidin-3-yl)-2-cyano-3-(6-methylpyridin-2-yl)acrylamide]
